These results are taken from patent publication US9730937B2, “RAF kinase modulator compounds and methods of use thereof” (AMBIT BIOSCIENCES CORPORATION, priority 2008, dated 2017).

Assay [1] deals with panel of 290 distinct kinases (321 in the larger panel), excluding mutant variants. Conditions: kinase selectivity score, class symbols.
Description: The liganded beads were blocked with excess biotin and washed with blocking buffer (SeaBlock (Pierce), 1% BSA, 0.05% Tween 20, 1 mM DTT) to remove unbound ligand and to reduce non-specific binding. […] Test compounds were prepared as 100× stocks in DMSO and rapidly diluted into the aqueous environment. DMSO was added to control assays lacking a test compound. Primary screen interactions were performed in polypropylene 384-well plates in a final volume of 34 μL, while Kd determinations were performed in polystyrene 96-well plates in a final volume of 135 μL. […] The kinase concentration in the eluates was measured by quantitative PCR. Each kinase was tested individually against each compound. KdS were determined using eleven serial threefold dilutions. A selectivity score, which is a quantitative measure of selectivity of a compound against a panel of enzymes, may be calculated for a compound by dividing the number of enzymes for which a compound meets a set criteria, (for example, a binding constant of 100 nM or less), by the total number of enzymes tested. […] (Note, for those compounds tested in a larger kinase panel, as indicated by an asterisk (*) next to the S35 score, the divisor is 321 (i.e. the larger panel contains 321 distinct kinases, excluding mutant variants.)).
The next assay deals with mutant BRAF kinase (Homo sapiens (Human), UniProt P15056, V600E). Conditions: read-out: BRAF V600E Kd, class symbols.
Setting [2] is: value marked * (larger kinase panel).

Each structure is given as a SMILES string. Where a name gives a salt, the structure may show the parent alone. Read-outs that look alike come from different tables or passages of the source.

Sequence of mutant BRAF kinase (P15056 whole entry V600E): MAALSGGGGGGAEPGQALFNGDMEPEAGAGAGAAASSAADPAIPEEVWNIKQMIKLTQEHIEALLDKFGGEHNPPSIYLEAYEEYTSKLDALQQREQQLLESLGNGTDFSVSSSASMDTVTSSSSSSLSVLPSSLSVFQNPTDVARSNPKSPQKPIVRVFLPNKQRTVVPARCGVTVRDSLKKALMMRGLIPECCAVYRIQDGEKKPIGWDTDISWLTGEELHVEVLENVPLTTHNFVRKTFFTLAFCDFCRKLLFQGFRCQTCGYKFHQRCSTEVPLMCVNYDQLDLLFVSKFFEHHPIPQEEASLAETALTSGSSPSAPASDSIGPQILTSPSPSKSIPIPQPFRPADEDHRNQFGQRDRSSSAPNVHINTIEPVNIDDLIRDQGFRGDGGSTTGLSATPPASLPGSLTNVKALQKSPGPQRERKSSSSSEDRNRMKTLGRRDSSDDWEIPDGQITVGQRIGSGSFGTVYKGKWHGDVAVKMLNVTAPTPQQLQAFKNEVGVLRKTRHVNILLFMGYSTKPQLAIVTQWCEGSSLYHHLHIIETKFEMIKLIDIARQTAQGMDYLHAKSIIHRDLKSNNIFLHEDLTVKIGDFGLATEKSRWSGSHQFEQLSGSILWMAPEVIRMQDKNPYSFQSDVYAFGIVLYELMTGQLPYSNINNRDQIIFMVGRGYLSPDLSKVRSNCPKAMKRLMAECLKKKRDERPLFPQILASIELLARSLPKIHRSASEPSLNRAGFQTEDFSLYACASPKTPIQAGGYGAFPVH

In the case of `COc1cc2c(Oc3cccc(NC(=O)Nc4cc(C(C)(C)C)on4)c3)ncnc2cc1OCCCN1CC[C@H](O)C1` [Ex 33, (S)-1-(5-tert-butylisoxazol-3-yl)-3-(3-(7-(3-(3-hydroxypyrrolidin-1-yl)propoxy)-6-methoxyquinazolin-4-yloxy)phenyl)urea], in assay [1] (setting [2]), the S35 result is listed as “D* (D > 0.40)”. Further, at mutant BRAF kinase, the equilibrium dissociation constant (Kd) was less than 250 nM.
In the case of `COc1cc2c(Oc3cccc(NC(=O)Nc4cc(C(C)(C)C)on4)c3)ncnc2cc1OCCCN1CC[C@@H](O)C1` [Ex 34, (R)-1-(5-tert-Butylisoxazol-3-yl)-3-(3-(7-(3-(3-hydroxypyrrolidin-1-yl)propoxy)-6-methoxyquinazolin-4-yloxy)phenyl)urea], the S35 result in assay [1] (setting [2]) is “D* (D > 0.40)”. In addition, the equilibrium dissociation constant (Kd) at mutant BRAF kinase is less than 250 nM.
As for `COc1cc2c(Oc3cccc(NC(=O)Nc4cc(C(C)(C)C)on4)c3)ncnc2cc1OCCN1CCOCC1` [Ex 35, 1-(5-tert-butylisoxazol-3-yl)-3-(3-(6-methoxy-7-(2-morpholinoethoxy)quinazolin-4-yloxy)phenyl)urea], the S35 result in assay [1] (290 distinct kinases) was “C (0.20 < C ≦ 0.40)”. Further, the Kd at mutant BRAF kinase was less than 250 nM.
Take `COc1cc2c(Oc3cccc(NC(=O)Nc4cc(C(C)(C)C)on4)c3)ncnc2cc1OCCN1CCN(C)CC1` [Ex 36, 1-(5-tert-butylisoxazol-3-yl)-3-(3-(6-methoxy-7-(2-(4-methylpiperazin-1-yl)ethoxy)quinazolin-4-yloxy)phenyl)urea]: the S35 result in assay [1] (290 distinct kinases) is given as “C (0.20 < C ≦ 0.40)”. The Kd on mutant BRAF kinase is less than 250 nM.
In the case of `COc1cc2c(Oc3cccc(NC(=O)Nc4cc(C(C)(C)C)on4)c3)ncnc2cc1OCCN1CCC(CO)CC1` [Ex 37, 1-(5-tert-butyl-isoxazol-3-yl)-3-(3-{7-[2-(4-hydroxymethyl-piperidin-1-yl)-ethoxy]-6-methoxy-quinazolin-4-yloxy}-phenyl)-urea], the S35 result in assay [1] (290 distinct kinases) is on record as “C (0.20 < C ≦ 0.40)”. Also, on mutant BRAF kinase, the dissociation constant (Kd) is less than 250 nM.
`COc1cc2c(Oc3cccc(NC(=O)Nc4cc(C(C)(C)C)on4)c3)ncnc2cc1OCCN1CCN(CCO)CC1` [Ex 38, 1-(5-tert-butylisoxazol-3-yl)-3-(3-(7-(2-(4-(2-hydroxyethyl)piperazin-1-yl)ethoxy)-6-methoxyquinazolin-4-yloxy)phenyl)urea]: in assay [1] (290 distinct kinases), the S35 entry is listed as “D (D > 0.40)”. Moreover, the dissociation constant (Kd) on mutant BRAF kinase is less than 250 nM.
For `COc1cc2c(Oc3cccc(NC(=O)Nc4cc(C(C)(C)C)on4)c3)ncnc2cc1OCCN1CCS(=O)(=O)CC1` [Ex 39, 1-(5-tert-butyl-isoxazol-3-yl)-3-(3-{7-[2-(1,1-dioxo-116-thiomorpholin-4-yl)-ethoxy]-6-methoxy-quinazolin-4-yloxy}-phenyl)-urea] the same measures were “C (0.20 < C ≦ 0.40)” and less than 250 nM.
In the case of `COCCOc1ccc2c(Oc3cccc(NC(=O)Nc4cc(C(C)(C)C)on4)c3)ncnc2c1` [Ex 43, 1-(5-tert-butylisoxazol-3-yl)-3-(3-(7-(2-methoxyethoxy)quinazolin-4-yloxy)phenyl)urea], the S35 result in assay [1] (290 distinct kinases) is listed as “C (0.20 < C ≦ 0.40)”. The Kd on mutant BRAF kinase is less than 250 nM.
For `COCCOc1cc2c(Sc3cccc(NC(=O)Nc4cc(C(C)(C)C)on4)c3)ncnc2cc1OC` [Ex 45, 1-(5-tert-butylisoxazol-3-yl)-3-(3-(7-methoxy-6-(2-methoxyethoxy)quinazolin-4-ylthio)phenyl)urea] the same measures were “C (0.20 < C ≦ 0.40)” and less than 250 nM.
As to `COc1cc2ncnc(Sc3cccc(NC(=O)Nc4cc(C(C)(C)C)on4)c3)c2cc1OC` [Ex 46, 1-(5-tert-butylisoxazol-3-yl)-3-(3-(6,7-dimethoxyquinazolin-4-ylthio)phenyl)urea], the S35 result in assay [1] (290 distinct kinases) was “C (0.20 < C ≦ 0.40)”. Besides, the Kd on mutant BRAF kinase is less than 250 nM.
For `COCCOc1cc2ncnc(Sc3cccc(NC(=O)Nc4cc(C(C)(C)C)on4)c3)c2cc1OC` [Ex 52, 1-(5-tert-butylisoxazol-3-yl)-3-{3-[6-methoxy-7-(2-methoxyethoxy)quinazolin-4-ylthio]phenyl}urea hydrochloride] the same measures were “C (0.20 < C ≦ 0.40)” and less than 250 nM.
The corresponding values for `COCCOc1cc2ncnc(Sc3cccc(NC(=O)Nc4cc(C(C)(C)C)on4)c3)c2cc1OCCOC` [Ex 53, 1-{3-[6,7-bis(2-methoxyethoxy)quinazolin-4-ylthio]phenyl}-3-(5-tert-butylisoxazol-3-yl)urea hydrochloride] are “C (0.20 < C ≦ 0.40)” and less than 250 nM.
As for `CCOc1cc2c(Sc3cccc(NC(=O)Nc4cc(C(C)(C)C)on4)c3)ncnc2cc1OC` [Ex 56, 1-(5-tert-butylisoxazol-3-yl)-3-(3-(6-ethoxy-7-methoxyquinazolin-4-ylthio)phenyl)urea], the S35 result in assay [1] (290 distinct kinases) is listed as “B (0.10 < B ≦ 0.20)”. On mutant BRAF kinase, the Kd is less than 250 nM.
For `COc1cc2ncnc(Sc3cccc(NC(=O)Nc4cc(C(C)(C)C)on4)c3)c2cc1OCCCN1CCCCC1` [Ex 57, 1-(5-tert-butylisoxazol-3-yl)-3-(3-(7-methoxy-6-(3-(piperidin-1-yl)propoxy)quinazolin-4-ylthio)phenyl)urea] the same measures were “C (0.20 < C ≦ 0.40)” and less than 250 nM.
The corresponding values for `COc1cc2ncnc(Sc3cccc(NC(=O)Nc4cc(C(C)(C)C)on4)c3)c2cc1OCCCN1CCC(CO)CC1` [Ex 58, 1-(5-tert-butylisoxazol-3-yl)-3-(3-(6-(3-(4-(hydroxymethyl)piperidin-1-yl)propoxy)-7-methoxyquinazolin-4-ylthio)phenyl)urea] are “D (D > 0.40)” and less than 250 nM.
With `COc1cc2ncnc(Sc3cccc(NC(=O)Nc4cc(C(C)(C)C)on4)c3)c2cc1OCCCN1CCN(C)CC1` [Ex 59, 1-(5-tert-butylisoxazol-3-yl)-3-(3-(7-methoxy-6-(3-(4-methylpiperazin-1-yl)propoxy)quinazolin-4-ylthio)phenyl)urea], the S35 entry in assay [1] (290 distinct kinases) is “D (D > 0.40)”. Further, the Kd at mutant BRAF kinase was less than 250 nM.
For `COc1cc2ncnc(Sc3cccc(NC(=O)Nc4cc(C(C)(C)C)on4)c3)c2cc1OCCCN1CCN(S(C)(=O)=O)CC1` [Ex 60, 1-(5-tert-butylisoxazol-3-yl)-3-(3-(7-methoxy-6-(3-(4-(methylsulfonyl)piperazin-1-yl)propoxy)quinazolin-4-ylthio)phenyl)urea] the same measures were “C (0.20 < C ≦ 0.40)” and less than 250 nM.
The corresponding values for `COc1cc2ncnc(Sc3cccc(NC(=O)Nc4cc(C(C)(C)C)on4)c3)c2cc1OCCN1CCC(CO)CC1` [Ex 66, 1-(5-tert-butylisoxazol-3-yl)-3-(3-(6-(2-(4-(hydroxymethyl)piperidin-1-yl)ethoxy)-7-methoxyquinazolin-4-ylthio)phenyl)urea] are “C (0.20 < C ≦ 0.40)” and less than 250 nM.
For `COc1cc2ncnc(Sc3cccc(NC(=O)Nc4cc(C(C)(C)C)on4)c3)c2cc1OCCN1CCN(C)CC1` [Ex 67, 1-(5-tert-butylisoxazol-3-yl)-3-(3-(7-methoxy-6-(2-(4-methylpiperazin-1-yl)ethoxy)quinazolin-4-ylthio)phenyl)urea] the same measures were “C (0.20 < C ≦ 0.40)” and less than 250 nM.
For the compound `COc1cc2ncnc(Sc3cccc(NC(=O)Nc4cc(C(C)(C)C)on4)c3)c2cc1OCCN1CCN(CCO)CC1` [Ex 68, 1-(5-tert-butylisoxazol-3-yl)-3-(3-(6-(2-(4-(2-hydroxyethyl)piperazin-1-yl)ethoxy)-7-methoxyquinazolin-4-ylthio)phenyl)urea], the S35 entry in assay [1] (290 distinct kinases) was “C (0.20 < C ≦ 0.40)”. Further, the dissociation constant Kd at mutant BRAF kinase is less than 250 nM.
For `COc1cc2ncnc(Sc3cccc(NC(=O)Nc4cc(C(C)(C)C)on4)c3)c2cc1OCCN1CCN(S(C)(=O)=O)CC1` [Ex 69, 1-(5-tert-butylisoxazol-3-yl)-3-(3-(7-methoxy-6-(2-(4-(methylsulfonyl)piperazin-1-yl)ethoxy)quinazolin-4-ylthio)phenyl)urea], the S35 entry in assay [1] (290 distinct kinases) is “C (0.20 < C ≦ 0.40)”. Further, the Kd at mutant BRAF kinase is less than 250 nM.
Take `COc1cc2c(Sc3cccc(NC(=O)Nc4cc(C(C)(C)C)on4)c3)ncnc2cc1OCCCN1CCN(C)CC1` [Ex 73, 1-(5-tert-butylisoxazol-3-yl)-3-(3-(6-methoxy-7-(3-(4-methylpiperazin-1-yl)propoxy)quinazolin-4-ylthio)phenyl)urea]: in assay [1] (290 distinct kinases), the S35 result is “D (D > 0.40)”. Also, at mutant BRAF kinase, the Kd is less than 250 nM.
The corresponding values for `COc1cc2c(Sc3cccc(NC(=O)Nc4cc(C(C)(C)C)on4)c3)ncnc2cc1OCCCN1CCN(CCO)CC1` [Ex 75, 1-(5-tert-butylisoxazol-3-yl)-3-(3-(7-(3-(4-(2-hydroxyethyl)piperazin-1-yl)propoxy)-6-methoxyquinazolin-4-ylthio)phenyl)urea] are “D (D > 0.40)” and less than 250 nM.
Regarding `COc1cc2c(Sc3cccc(NC(=O)Nc4cc(C(C)(C)C)on4)c3)ncnc2cc1OCCCN1CCCCC1` [Ex 76, 1-(5-tert-butylisoxazol-3-yl)-3-(3-(6-methoxy-7-(3-(piperidin-1-yl)propoxy)quinazolin-4-ylthio)phenyl)urea], the S35 result in assay [1] (290 distinct kinases) is on record as “D (D > 0.40)”. Besides, the Kd on mutant BRAF kinase was less than 250 nM.
For `COc1cc2c(Sc3cccc(NC(=O)Nc4cc(C(C)(C)C)on4)c3)ncnc2cc1OCCCN1CCN(S(C)(=O)=O)CC1` [Ex 77, 1-(5-tert-butylisoxazol-3-yl)-3-(3-(6-methoxy-7-(3-(4-(methylsulfonyl)piperazin-1-yl)propoxy)quinazolin-4-ylthio)phenyl)urea], in assay [1] (290 distinct kinases), the S35 result is “D (D > 0.40)”. In addition, at mutant BRAF kinase, the Kd was less than 250 nM.
With `COc1cc2c(Sc3cccc(NC(=O)Nc4cc(C(C)(C)C)on4)c3)ncnc2cc1OCCN1CCOCC1` [Ex 79, (1-(5-tert-butylisoxazol-3-yl)-3-(3-(6-methoxy-7-(2-morpholinoethoxy)quinazolin-4-ylthio)phenyl)urea)], the S35 entry in assay [1] (290 distinct kinases) is given as “D (D > 0.40)”. Further, the Kd at mutant BRAF kinase was less than 250 nM.
As for `COc1cc2c(Sc3cccc(NC(=O)Nc4cc(C(C)(C)C)on4)c3)ncnc2cc1OCCN1CCCCC1` [Ex 80, 1-(5-tert-butylisoxazol-3-yl)-3-(3-(6-methoxy-7-(2-(piperidin-1-yl)ethoxy)quinazolin-4-ylthio)phenyl)urea], the S35 result in assay [1] (290 distinct kinases) was “C (0.20 < C ≦ 0.40)”. In addition, the Kd at mutant BRAF kinase is less than 250 nM.
